Source: patent US8580965B2, “Substituted sulfonamide compounds” (Gruenenthal GmbH, priority 2006, dated 2013)
Counter-ions that a name gives are not always drawn.

Tests used:
[1] = molecular target: T1, B1R receptor of the rat (bradykinin 1 receptor) (Rattus norvegicus, UniProt P97583); assay: FLIPR Ca2+ assay (Fluo-4) on CHO K1 cells stably transfected with the B1R gene of the rat; % activation and % inhibition at 10 μM; assay type: cell-based; details: CHO K1 rB1R cells, Ca2+ inflow after 100 nM Des-Arg9-bradykinin; for inhibition at 10 µM: CHO-K1, test substance 10 μM, read-out: B1R antagonism, rat [10 μM] % inhibition; for B1R antagonism, rat [10 μM] % inhibition: test substance 10 μM
T1 construct: host or cells: CHO K1 cells (rB1R cells)
T1 sequence (P97583 1-337): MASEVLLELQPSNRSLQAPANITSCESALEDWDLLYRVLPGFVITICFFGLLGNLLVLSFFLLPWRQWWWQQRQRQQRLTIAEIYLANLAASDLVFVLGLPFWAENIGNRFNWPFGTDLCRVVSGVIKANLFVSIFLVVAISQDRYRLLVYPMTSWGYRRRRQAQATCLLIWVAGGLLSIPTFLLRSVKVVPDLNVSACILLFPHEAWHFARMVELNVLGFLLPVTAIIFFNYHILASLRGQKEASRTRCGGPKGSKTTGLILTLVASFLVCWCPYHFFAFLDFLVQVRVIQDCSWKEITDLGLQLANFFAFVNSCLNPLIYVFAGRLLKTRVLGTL
Summary of the method: (§1)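 CHO K1 cells stably expressing human or rat B1R, Fluo-4 loaded, read by FLIPR (peak fluorescence). Compound at 10 µM first gives % activation versus agonist; after 10 min, agonist (human: 0.5 nM Lys-Des-Arg9-bradykinin; rat: 100 nM Des-Arg9-bradykinin) gives % inhibition relative to maximal inhibition.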

[2] = molecular target: T2, human B1R receptor (bradykinin 1 receptor) (Homo sapiens, UniProt P46663); assay: FLIPR Ca2+ assay (Fluo-4) on CHO K1 cells stably transfected with the human B1R gene; % activation and % inhibition at 10 μM; assay type: cell-based; details: CHO K1 hB1R cells, Ca2+ inflow after 0.5 nM Lys-Des-Arg9-bradykinin; for inhibition at 10 µM: CHO-K1, test substance 10 μM, read-out: B1R antagonism, human [10 μM] % inhibition; for B1R antagonism, human [10 μM] % inhibition: test substance 10 μM
T2 construct: host or cells: CHO K1 cells (hB1R cells)
T2 sequence (P46663 1-353): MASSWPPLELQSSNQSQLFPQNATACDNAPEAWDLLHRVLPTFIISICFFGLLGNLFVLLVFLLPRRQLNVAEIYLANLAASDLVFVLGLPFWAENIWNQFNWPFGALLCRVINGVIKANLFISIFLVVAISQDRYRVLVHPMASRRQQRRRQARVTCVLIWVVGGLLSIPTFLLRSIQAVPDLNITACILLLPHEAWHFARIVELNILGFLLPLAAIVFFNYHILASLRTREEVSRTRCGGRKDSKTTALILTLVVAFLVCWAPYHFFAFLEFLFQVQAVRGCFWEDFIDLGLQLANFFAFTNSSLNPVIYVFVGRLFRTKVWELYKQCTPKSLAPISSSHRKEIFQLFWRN
Summary of the method: as §1

In the case of `O=C(COCC1Cc2ccccc2CN1S(=O)(=O)c1ccccc1)N1CCC(O)(c2ccccn2)CC1` (stereo not drawn) [Example 73, 2-(2-phenylsulfonyl-1,2,3,4-tetrahydro-isoquinolin-3-ylmethoxy)-1-(4′-hydroxy-3′,4′,5′,6′-tetrahydro-2′H-[2,4′]bipyridinyl-1′-yl)-ethanone], the inhibition at 10 µM [1] is reported as 14.4% and the inhibition at 10 µM [2] is reported as -7.27%.
`COc1ccc(S(=O)(=O)N2CCC(OCC(=O)N3CCC(O)(c4ccccn4)CC3)(c3ccccc3)CC2)cc1` [Example 74, 1-(4′-hydroxy-3′,4′,5′,6′-tetrahydro-2′H-[2,4′]bipyridinyl-1′-yl)-2-[1-(4-methoxy-phenylsulfonyl)-4-phenyl-piperidin-4-yloxy]-ethanone] showed an inhibition at 10 µM [1] of -3.17% and an inhibition at 10 µM [2] of -7.3%.
`O=C(COCC1Cc2ccccc2CN1S(=O)(=O)c1ccc(F)cc1)N1CCC(O)(Cc2ccccc2)CC1` (stereo not drawn) [Example 75, 1-(4-benzyl-4-hydroxy-piperidin-1-yl)-2-[2-(4-fluoro-phenylsulfonyl)-1,2,3,4-tetrahydro-isoquinolin-3-ylmethoxy]-ethanone] gave an inhibition at 10 µM [1] of 19.2% and an inhibition at 10 µM [2] of 11%.
For `O=C(COCC1Cc2ccccc2CN1S(=O)(=O)c1ccccc1)N1CCC(O)(Cc2ccccc2)CC1` (stereo not drawn) [Example 77, 2-(2-phenylsulfonyl-1,2,3,4-tetrahydro-isoquinolin-3-ylmethoxy)-1-(4-benzyl-4-hydroxy-piperidin-1-yl)-ethanone], the inhibition at 10 µM [1] was -0.12% and the inhibition at 10 µM [2] was 13.3%.
`O=C(COCC1Cc2ccccc2CN1S(=O)(=O)c1ccc(Cl)c(Cl)c1)N1CCC(O)(c2ccccc2)CC1` (stereo not drawn) [Example 78, 2-((2-(3,4-dichlorophenylsulfonyl)-1,2,3,4-tetrahydroisoquinolin-3-yl)methoxy)-1-(4-hydroxy-4-phenylpiperidin-1-yl)ethanone] was tested, and the inhibition at 10 µM [1] was 12.7% and the inhibition at 10 µM [2] was 13.7%.
With `O=C(COCC1Cc2ccccc2CN1S(=O)(=O)c1ccc(Cl)cc1Cl)N1CCC(O)(c2ccc(Cl)cc2)CC1` (stereo not drawn) [Example 79, 1-(4-(4-chlorophenyl)-4-hydroxypiperidin-1-yl)-2-((2-(2,4-dichlorophenylsulfonyl)-1,2,3,4-tetrahydroisoquinolin-3-yl)methoxy)ethanone] the inhibition at 10 µM [1] was 70.7% and the inhibition at 10 µM [2] was 47.3%.
Work on `O=C(COCC1Cc2ccccc2CN1S(=O)(=O)c1ccc(Cl)cc1Cl)N1CCC(O)(c2ccccc2)CC1` (stereo not drawn) [Example 80, 2-((2-(2,4-dichlorophenylsulfonyl)-1,2,3,4-tetrahydroisoquinolin-3-yl)methoxy)-1-(4-hydroxy-4-phenylpiperidin-1-yl)ethanone] yielded an inhibition at 10 µM [1] of 82.5% and an inhibition at 10 µM [2] of 62.3%.
With `O=C(COCC1Cc2ccccc2CN1S(=O)(=O)c1ccc(Cl)cc1Cl)N1CCC(O)(Cc2ccccc2)CC1` (stereo not drawn) [Example 81, 1-(4-benzyl-4-hydroxy-piperidin-1-yl)-2-[2-(2,4-dichloro-phenylsulfonyl)-1,2,3,4-tetrahydro-isoquinolin-3-ylmethoxy]-ethanone] the inhibition at 10 µM [1] was 62.8% and the inhibition at 10 µM [2] was 32.9%.
In the case of `COc1ccc(S(=O)(=O)N2CCC(OCC(=O)N3CCC(O)(Cc4ccccc4)CC3)(c3ccccc3)CC2)cc1` [Example 82, 1-(4-benzyl-4-hydroxy-piperidin-1-yl)-2-[1-(4-methoxy-phenylsulfonyl)-4-phenyl-piperidin-4-yloxy]-ethanone], the inhibition at 10 µM [1] is reported as 17.9% and the inhibition at 10 µM [2] is reported as 9.32%.
`O=C(COC1CCCCC1N(Cc1ccccc1)S(=O)(=O)c1ccc(Cl)c(Cl)c1)N1CCC(O)(c2ccc(Cl)cc2)CC1` (stereo not drawn) [Example 83, N-benzyl-3,4-dichloro-N-(2-(2-(4-(4-chlorophenyl)-4-hydroxypiperidin-1-yl)-2-oxoethoxy)cyclohexyl)phenylsulfonamide] gave an inhibition at 10 µM [1] of -12.6% and an inhibition at 10 µM [2] of 11.3%.
For `O=C(COC1CCCCC1N(Cc1ccccc1)S(=O)(=O)c1ccc(Cl)c(Cl)c1)N1CCC(O)(Cc2ccccc2)CC1` (stereo not drawn) [Example 84, N-benzyl-N-{2-[2-(4-benzyl-4-hydroxy-piperidin-1-yl)-2-oxo-ethoxy]-cyclohexyl}-3,4-dichloro-phenylsulfonamide], the inhibition at 10 µM [1] was -9.47% and the inhibition at 10 µM [2] was -0.61%.
Work on `COc1cc(C)c(S(=O)(=O)N2CCCCC2COCC(=O)N2CCC(O)(c3cccs3)CC2)c(C)c1` (stereo not drawn) [Example 85, 1-(4-hydroxy-4-thiophen-2-yl-piperidin-1-yl)-2-[1-(4-methoxy-2,6-dimethyl-phenylsulfonyl)-piperidin-2-ylmethoxy]-ethanone] yielded an inhibition at 10 µM [1] of 101% and an inhibition at 10 µM [2] of 106%.
`COc1cc(C)c(S(=O)(=O)N(C)CCOCC(=O)N2CCC(O)(c3cccs3)CC2)c(C)c1` [Example 86, N-{2-[2-(4-hydroxy-4-thiophen-2-yl-piperidin-1-yl)-2-oxo-ethoxy]-ethyl}-4-methoxy-2,6,N-trimethyl-phenylsulfonamide] gave an inhibition at 10 µM [1] of 102% and an inhibition at 10 µM [2] of 106%.
`COc1cc(C)c(S(=O)(=O)N(C)CCOCC(=O)N2CCC(O)(c3ccncc3)CC2)c(C)c1` [Example 88, N-{2-[2-(4-hydroxy-3,4,5,6-tetrahydro-2H-[4,4′]bipyridinyl-1-yl)-2-oxo-ethoxy]-ethyl}-4-methoxy-2,6,N-trimethyl-phenylsulfonamide] gave an inhibition at 10 µM [1] of 103% and an inhibition at 10 µM [2] of 102%.
With `COc1cc(C)c(S(=O)(=O)N2CCCC2COCC(=O)N2CCC(O)(c3cccnc3)CC2)c(C)c1` (stereo not drawn) [Example 89, 1-(4′-hydroxy-3′,4′,5′,6′-tetrahydro-2′H-[3,4′]bipyridinyl-1′-yl)-2-[1-(4-methoxy-2,6-dimethyl-phenylsulfonyl)-pyrrolidin-2-ylmethoxy]-ethanone; hydrochloride] the “B1R antagonism, rat [10 μM] % inhibition” value ([1]; hydrochloride) was 100.44% and the “B1R antagonism, human [10 μM] % inhibition” value ([2]; hydrochloride) was 104.46%.
For `O=C(COCC1Cc2ccccc2CN1S(=O)(=O)c1ccccc1)N1CCC(O)(c2cccnc2)CC1` (stereo not drawn) [Example 90, 2-(2-phenylsulfonyl-1,2,3,4-tetrahydro-isoquinolin-3-ylmethoxy)-1-(4′-hydroxy-3′,4′,5′,6′-tetrahydro-2′H-[3,4′]bipyridinyl-1′-yl)-ethanone], the inhibition at 10 µM [1] was 31.1% and the inhibition at 10 µM [2] was 13.8%.
In the case of `O=C(COCC1Cc2ccccc2CN1S(=O)(=O)c1ccc(Cl)c(Cl)c1)N1CCC(O)(c2cccnc2)CC1` (stereo not drawn) [Example 91, 2-[2-(3,4-dichloro-phenylsulfonyl)-1,2,3,4-tetrahydro-isoquinolin-3-ylmethoxy]-1-(4′-hydroxy-3′,4′,5′,6′-tetrahydro-2′H-[3,4′]bipyridinyl-1′-yl)-ethanone], the inhibition at 10 µM [1] is reported as 93.7% and the inhibition at 10 µM [2] is reported as 93.7%.
In the case of `O=C(COCC1Cc2ccccc2CN1S(=O)(=O)c1ccc(Cl)cc1Cl)N1CCC(O)(c2cccnc2)CC1` (stereo not drawn) [Example 92, 2-[2-(2,4-dichloro-phenylsulfonyl)-1,2,3,4-tetrahydro-isoquinolin-3-ylmethoxy]-1-(4′-hydroxy-3′,4′,5′,6′-tetrahydro-2′H-[3,4′]bipyridinyl-1′-yl)-ethanone], the “B1R antagonism, rat [10 μM] % inhibition” value [1] is reported as 97.98% and the “B1R antagonism, human [10 μM] % inhibition” value [2] is reported as 101.02%.
`CN(CCOCC(=O)N1CCC(O)(c2ccc(Cl)cc2)CC1)S(=O)(=O)c1cc(F)cc(F)c1` [Example 93, N-(2-(2-(4-(4-chlorophenyl)-4-hydroxypiperidin-1-yl)-2-oxoethoxy)ethyl)-3,5-difluoro-N-methylphenylsulfonamide] gave an inhibition at 10 µM [1] of 6.49% and an inhibition at 10 µM [2] of -12.1%.
`Cc1cc(C)c(S(=O)(=O)N2CCCCC2COCC(=O)N2CCC(O)(c3ccccn3)CC2)c(C)c1` (stereo not drawn) [Example 94, 1-(4′-hydroxy-3′,4′,5′,6′-tetrahydro-2′H-[2,4′]bipyridinyl-1′-yl)-2-[1-(2,4,6-trimethyl-phenylsulfonyl)-piperidin-2-ylmethoxy]-ethanone] showed an inhibition at 10 µM [1] of 103% and an inhibition at 10 µM [2] of 104%.
In the case of `O=C(COC1CCCCC1N(Cc1ccccc1)S(=O)(=O)c1ccc(Cl)c(Cl)c1)N1CCC(O)(c2ccccn2)CC1` (stereo not drawn) [Example 95, N-benzyl-3,4-dichloro-N-{2-[2-(4′-hydroxy-3′,4′,5′,6′-tetrahydro-2′H-[2,4′]bipyridinyl-1′-yl)-2-oxo-ethoxy]-cyclohexyl}-phenylsulfonamide], the inhibition at 10 µM [1] is reported as -0.33% and the inhibition at 10 µM [2] is reported as 8.92%.
